The values that follow come from ChEMBL document CHEMBL3588800, “Novel Bioactive Hybrid Compound Dual Targeting Estrogen Receptor and Histone Deacetylase for the Treatment of Breast Cancer” (J Med Chem, 2015).

The target of assay [1] is T1, Estrogen receptor beta (Homo sapiens, UniProt Q92731). Put plainly: Antagonist activity at ER-beta (unknown origin) transfected in HEK293T cells assessed as inhibition of transcriptional activity after 24 hrs by luciferase reporter gene assay relative to 17-beta estradiol. Conditions: HEK-293T; call rule not given here. The format is cell-based.
The subject of another assay is MCF7. Kind of assay: cells. The format is functional, cell-based. As to conditions: Homo sapiens, MCF7, 72 h.
Assay [2] deals with T1, Estrogen receptor beta. Put plainly: Agonist activity at ER-beta (unknown origin) transfected in HEK293T cells assessed as stimulation of transcriptional activity after 24 hrs by luciferase reporter gene assay relative to 17-beta estradiol. The format is cell-based. As to conditions: HEK-293T. On the technique in general: Reporter assays use an easily measured gene product as a stand-in for the process of interest.

Assay [3] concerns the target T2, Estrogen receptor (Homo sapiens) (UniProt P03372).
T2 sequence (whole entry): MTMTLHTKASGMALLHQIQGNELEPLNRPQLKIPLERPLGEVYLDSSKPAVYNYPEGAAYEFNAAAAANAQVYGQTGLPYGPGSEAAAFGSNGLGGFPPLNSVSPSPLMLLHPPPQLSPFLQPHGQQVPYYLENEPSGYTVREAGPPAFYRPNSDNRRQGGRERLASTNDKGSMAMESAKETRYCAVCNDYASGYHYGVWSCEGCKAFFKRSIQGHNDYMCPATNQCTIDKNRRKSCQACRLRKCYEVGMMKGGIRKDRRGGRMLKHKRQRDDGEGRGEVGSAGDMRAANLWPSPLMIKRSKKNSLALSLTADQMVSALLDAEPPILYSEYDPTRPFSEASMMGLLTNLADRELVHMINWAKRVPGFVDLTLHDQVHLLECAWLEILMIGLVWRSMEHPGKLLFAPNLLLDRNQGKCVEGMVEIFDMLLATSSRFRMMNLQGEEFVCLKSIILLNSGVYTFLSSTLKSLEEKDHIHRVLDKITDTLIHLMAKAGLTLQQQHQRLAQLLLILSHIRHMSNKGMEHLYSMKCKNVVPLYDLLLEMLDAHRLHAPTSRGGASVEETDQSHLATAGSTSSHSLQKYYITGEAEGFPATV
Kind of assay: Agonist activity at ER-alpha (unknown origin) transfected in HEK293T cells assessed as stimulation of transcriptional activity after 24 hrs by luciferase reporter gene assay relative to 17-beta estradiol. The format is cell-based. Conditions: HEK-293T.

For another assay, the system named is DU-145. Kind of assay: cells. The assay is classed as functional, cell-based. Conditions: Homo sapiens, DU-145, 72 h.
The target in assay [4] is T1, Estrogen receptor beta. Put plainly: Agonist activity at ER-beta (unknown origin) transfected in HEK293T cells assessed as stimulation of transcriptional activity after 24 hrs by luciferase reporter gene assay. The format is cell-based, HEK-293T.
A further assay deals with Vero. Put plainly: cells. The format is ADME, cell-based. Conditions: Chlorocebus sabaeus, 72 h.
For assay [5], the target named is T2, Estrogen receptor (Homo sapiens). Kind of assay: Antagonist activity at ER-alpha (unknown origin) transfected in HEK293T cells assessed as inhibition of transcriptional activity after 24 hrs by luciferase reporter gene assay relative to 17-beta estradiol. The format is cell-based. As to conditions: HEK-293T.
The target of assay [6] is T3, Protein deacetylase HDAC6 (Homo sapiens, UniProt Q9UBN7).
T3 sequence (Q9UBN7 whole entry): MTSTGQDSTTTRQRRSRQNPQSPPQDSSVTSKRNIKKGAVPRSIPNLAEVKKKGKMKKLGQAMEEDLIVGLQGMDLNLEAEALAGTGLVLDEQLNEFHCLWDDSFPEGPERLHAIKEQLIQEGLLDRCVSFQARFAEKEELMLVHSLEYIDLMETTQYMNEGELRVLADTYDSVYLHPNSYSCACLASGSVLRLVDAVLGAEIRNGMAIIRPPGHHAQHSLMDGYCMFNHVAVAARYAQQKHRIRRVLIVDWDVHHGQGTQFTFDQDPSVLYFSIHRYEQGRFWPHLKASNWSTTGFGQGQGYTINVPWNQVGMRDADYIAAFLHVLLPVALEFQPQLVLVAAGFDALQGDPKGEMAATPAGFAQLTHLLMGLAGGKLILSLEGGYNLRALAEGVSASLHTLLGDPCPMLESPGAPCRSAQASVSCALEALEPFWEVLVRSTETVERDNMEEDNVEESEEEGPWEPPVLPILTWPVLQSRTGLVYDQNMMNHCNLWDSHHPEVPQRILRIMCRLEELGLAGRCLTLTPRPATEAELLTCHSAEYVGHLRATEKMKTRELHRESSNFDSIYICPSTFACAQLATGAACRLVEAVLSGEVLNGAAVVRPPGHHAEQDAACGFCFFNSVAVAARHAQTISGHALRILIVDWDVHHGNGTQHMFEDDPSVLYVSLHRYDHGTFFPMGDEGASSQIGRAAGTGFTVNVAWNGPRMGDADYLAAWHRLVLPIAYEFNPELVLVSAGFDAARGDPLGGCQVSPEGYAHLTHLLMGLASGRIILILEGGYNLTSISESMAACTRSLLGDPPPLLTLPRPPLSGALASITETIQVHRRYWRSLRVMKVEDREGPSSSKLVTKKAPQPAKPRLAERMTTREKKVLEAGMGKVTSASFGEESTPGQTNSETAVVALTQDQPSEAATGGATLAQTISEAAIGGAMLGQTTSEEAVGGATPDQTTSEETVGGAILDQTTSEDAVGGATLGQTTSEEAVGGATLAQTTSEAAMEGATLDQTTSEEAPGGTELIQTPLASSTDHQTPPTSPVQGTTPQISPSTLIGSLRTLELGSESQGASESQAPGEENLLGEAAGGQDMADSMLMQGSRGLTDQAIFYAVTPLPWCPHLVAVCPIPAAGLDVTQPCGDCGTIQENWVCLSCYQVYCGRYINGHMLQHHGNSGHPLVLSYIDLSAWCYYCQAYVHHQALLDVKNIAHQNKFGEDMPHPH
Put plainly: Inhibition of human recombinant HDAC6 after 15 mins by fluorogenic assay.

A further assay addresses Histone deacetylase 1 (Homo sapiens, UniProt Q13547). Put plainly: Inhibition of human recombinant HDAC1 after 15 mins by fluorogenic assay.
The target of assay [7] is T1, Estrogen receptor beta. Kind of assay: Binding affinity to human ER-beta ligand binding domain after 2 hrs by competitive fluorometric binding assay.
Assay [8] addresses T4, Estrogen receptor (Homo sapiens, UniProt P03372).
T4 sequence (P03372 whole entry): T2 sequence (whole entry)
Kind of assay: Antagonist activity at ER-alpha (unknown origin) transfected in HEK293T cells assessed as inhibition of transcriptional activity after 24 hrs by luciferase reporter gene assay. The assay is classed as cell-based, HEK-293T.

Assay [9] deals with T4, Estrogen receptor. Kind of assay: Binding affinity to human ER-alpha ligand binding domain after 2 hrs by competitive fluorometric binding assay.

pEC50, pIC50, pKi: −log10 of the molar value. Where only a bound is given, the exact number is not on record here.

T1 sequence (Q92731 whole entry): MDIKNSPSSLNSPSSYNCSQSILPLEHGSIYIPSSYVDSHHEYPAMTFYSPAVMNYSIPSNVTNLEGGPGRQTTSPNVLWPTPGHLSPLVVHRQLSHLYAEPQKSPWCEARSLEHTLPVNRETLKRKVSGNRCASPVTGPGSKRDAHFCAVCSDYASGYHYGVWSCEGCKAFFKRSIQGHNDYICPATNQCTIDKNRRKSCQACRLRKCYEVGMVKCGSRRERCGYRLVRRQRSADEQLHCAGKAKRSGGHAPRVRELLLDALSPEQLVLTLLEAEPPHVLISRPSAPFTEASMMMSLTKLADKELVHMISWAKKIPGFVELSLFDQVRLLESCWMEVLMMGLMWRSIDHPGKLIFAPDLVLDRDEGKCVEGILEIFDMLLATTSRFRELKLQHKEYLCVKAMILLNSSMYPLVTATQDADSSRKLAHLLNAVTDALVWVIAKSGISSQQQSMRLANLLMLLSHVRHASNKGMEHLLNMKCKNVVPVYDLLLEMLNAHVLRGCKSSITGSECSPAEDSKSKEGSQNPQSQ
Histone deacetylase 1, sequence (Q13547 whole entry, the tested form may be a part): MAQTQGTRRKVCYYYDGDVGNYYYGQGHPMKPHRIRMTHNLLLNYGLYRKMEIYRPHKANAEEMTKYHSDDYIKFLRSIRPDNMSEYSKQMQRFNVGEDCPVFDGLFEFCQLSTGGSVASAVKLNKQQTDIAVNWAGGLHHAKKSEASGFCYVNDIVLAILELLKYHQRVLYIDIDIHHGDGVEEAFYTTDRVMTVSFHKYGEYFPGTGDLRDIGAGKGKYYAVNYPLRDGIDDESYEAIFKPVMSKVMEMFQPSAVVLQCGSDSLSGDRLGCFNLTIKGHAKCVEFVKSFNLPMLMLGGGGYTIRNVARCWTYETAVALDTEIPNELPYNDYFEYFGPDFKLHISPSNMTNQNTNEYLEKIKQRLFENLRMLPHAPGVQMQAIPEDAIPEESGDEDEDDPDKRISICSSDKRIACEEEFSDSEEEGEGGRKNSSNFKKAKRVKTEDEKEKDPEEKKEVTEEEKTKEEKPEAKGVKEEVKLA

As usually defined, the pIC50 is −log10 of the IC50, conventionally taken in molar units. Broadly, the pEC50 is the negative decadic logarithm of the EC50, by convention in mol/L. Take `O=C(O)CCCCCCC(=O)Nc1cccc(OS(=O)(=O)C2CC3OC2C(c2ccc(O)cc2)=C3c2ccc(O)cc2)c1` (stereo not drawn): the Efficacy at Estrogen receptor beta [1] is 102%; at Estrogen receptor beta [2], 47%; in assay [3] it was 51%; in assay [5] it was 122%. For the same molecule, the pIC50 in the assay on MCF7, in the assay on DU-145 and in the assay on Vero was less than 4.00 each time. For the same molecule, the pEC50 on Estrogen receptor beta [4] was 5.68.
As to `O=C(O)CCCCCCC(=O)Nc1ccc(C2=C(c3ccc(O)cc3)C3CC(S(=O)(=O)Oc4cccc5ccccc45)C2O3)cc1` (stereo not drawn), the Efficacy on Estrogen receptor beta [1] is 15%; at Estrogen receptor beta [2], -13%; in assay [3], 5%; in assay [5] it was 14%. The pIC50 in the assay on MCF7 is 5.33; in the assay with DU-145, 4.31. Moreover, the IC50 result (in assay [6]; on Histone deacetylase 1) was “Not Active” throughout.
For orientation: pKi means −log10 of the Ki, conventionally taken in molar units. Lower therefore signals a high Ki. With `Cc1ccc(OS(=O)(=O)C2CC3OC2C(c2ccc(NC(=O)CCCCCCC(=O)O)cc2)=C3c2ccc(O)cc2)cc1` (racemic), the Efficacy is 111% at Estrogen receptor beta [1], 8% on Estrogen receptor beta [2], -6% in assay [3] and 36% in assay [5]. The negative logarithm of the IC50 (pIC50) is 4.22 in the assay with MCF7, 4.09 with DU-145, 5.97 on Estrogen receptor [8] and less than 4.00 with Vero. Also, the pKi at Estrogen receptor beta [7] was 7.06. The pEC50 on Estrogen receptor beta [4] was 6.28.
As to `Cc1cccc(OS(=O)(=O)C2CC3OC2C(c2ccc(NC(=O)CCCCCCC(=O)O)cc2)=C3c2ccc(O)cc2)c1` (racemic), the Efficacy at Estrogen receptor beta [1] is 87%; on Estrogen receptor beta [2], -11%; in assay [3], -28%; in assay [5], 43%. Also, the negative logarithm of the IC50 (pIC50) in the assay on MCF7 is 5.42; in the assay on DU-145, 4.28; on Histone deacetylase 1 (read-out: IC50) it was 5.53. Further, the IC50 entry in [6] is listed as “Not Active”.
`O=C(O)CCCCCCC(=O)Nc1ccc(C2=C(c3ccc(O)cc3)C3CC(S(=O)(=O)Oc4ccccc4O)C2O3)cc1` (racemic): the Efficacy at Estrogen receptor beta [1] was 87%; on Estrogen receptor beta [2] it was 37%; in assay [3], 12%; in assay [5], 24%. Moreover, the pIC50 with MCF7 was 4.55; with DU-145 it was 4.56; on Estrogen receptor [8], 6.85; with Vero, less than 4.00.
Take `O=C(O)CCCCCCC(=O)Nc1ccc(C2=C(c3ccc(O)cc3)C3CC(S(=O)(=O)Oc4ccccc4C(F)(F)F)C2O3)cc1` (racemic): the Efficacy worked out at 102% at Estrogen receptor beta [1], 10% on Estrogen receptor beta [2], 9% in assay [3] and 37% in [5]. For the same molecule, the pIC50 with MCF7 was 4.58; in the assay with DU-145, less than 4.00; on Estrogen receptor [8], 6.19; in the assay with Vero, less than 4.00. At Estrogen receptor [9], the pKi was 5.41.
In the case of `O=C(CCCCCCC(=O)Nc1ccc(C2=C(c3ccc(O)cc3)C3CC(S(=O)(=O)Oc4ccccc4)C2O3)cc1)NO` (racemic), the Efficacy on Estrogen receptor beta [1] turned out to be 92%; at Estrogen receptor beta [2], 38%; in assay [3], 20%; in [5] it was 77%. For the same molecule, the pIC50 in the assay with MCF7 was 4.52; with DU-145, 4.42; with Vero, less than 4.00. The molecule further gave a pKi on Estrogen receptor [9] of less than 5.30. The pEC50 on Estrogen receptor beta [4] is 8.70.
As to `Cc1ccc(OS(=O)(=O)C2CC3OC2C(c2ccc(NC(=O)CCCCCCC(=O)NO)cc2)=C3c2ccc(O)cc2)cc1` (racemic), the Efficacy is 95% at Estrogen receptor beta [1], 52% on Estrogen receptor beta [2], -28% in [3] and 116% in [5]. Also, the pIC50 with MCF7 was 4.39; in the assay with DU-145 it was 4.37; with Vero, less than 4.00. The pKi on Estrogen receptor beta [7] and at Estrogen receptor [9] was less than 5.30 each time. In addition, on Estrogen receptor beta [4], the pEC50 is 7.42.
Regarding `Cc1ccccc1OS(=O)(=O)C1CC2OC1C(c1ccc(NC(=O)CCCCCCC(=O)NO)cc1)=C2c1ccc(O)cc1` (racemic), the Efficacy at Estrogen receptor beta [1] was 94%; on Estrogen receptor beta [2] it was 27%; in assay [3] it was -20%; in [5], 126%. Further, the negative logarithm of the IC50 (pIC50) in the assay on MCF7 was 4.62; in the assay with DU-145 it was 4.51; in the assay with Vero, less than 4.00. Also, the values for the pKi on Estrogen receptor beta [7] and on Estrogen receptor [9] were 5.67 and less than 5.30, respectively. Further, the pEC50 at Estrogen receptor beta [4] was 6.69.
As for `COc1ccccc1OS(=O)(=O)C1CC2OC1C(c1ccc(NC(=O)CCCCCCC(=O)NO)cc1)=C2c1ccc(O)cc1` (racemic), the Efficacy on Estrogen receptor beta [1] amounted to 74%; at Estrogen receptor beta [2] it was 53%; in assay [3], 9%; in assay [5] it was 164%. Besides, the pIC50 with MCF7 is 4.59; in the assay with DU-145, 4.35; in the assay on Vero, less than 4.00. Further, the negative logarithm of the Ki (pKi) on Estrogen receptor [9] is less than 5.30. In addition, the negative-log EC50 (pEC50) on Estrogen receptor beta [4] was 7.64.
On to `O=C(CCCCCCC(=O)Nc1ccc(C2=C(c3ccc(O)cc3)C3CC(S(=O)(=O)Oc4ccc(F)cc4)C2O3)cc1)NO` (racemic), for which the Efficacy at Estrogen receptor beta [1] was 86%; at Estrogen receptor beta [2] it was 49%; in [5], 135%. The pIC50 is 4.63 in the assay on MCF7, 4.33 in the assay with DU-145 and less than 4.00 in the assay on Vero. The pKi at Estrogen receptor beta [7] was 5.47; at Estrogen receptor [9] it was less than 5.30. Moreover, the pEC50 at Estrogen receptor beta [4] was 8.70.
Turning to `O=C(CCCCCCC(=O)Nc1ccc(C2=C(c3ccc(O)cc3)C3CC(S(=O)(=O)Oc4cccc5ccccc45)C2O3)cc1)NO` (racemic), the Efficacy on Estrogen receptor beta [1] was 94%; at Estrogen receptor beta [2], 36%; in assay [3], -22%; in [5], 88%. For the same molecule, the pIC50 in the assay on MCF7 is 4.87; with DU-145, 5.07; in assay [6] (read-out: IC50) it was 7.52; in the assay with Vero it was less than 4.00. On Estrogen receptor [9], this molecule had a pKi of less than 5.30. Besides, the IC50 result at Histone deacetylase 1 is “Not Active”.
Turning to `O=S(=O)(Oc1ccccc1)[C@H]1C[C@H]2O[C@@H]1C(c1ccc(O)cc1)=C2c1ccc(O)cc1` (relative stereo), the pIC50 in the assay on MCF7 was 4.68; in the assay on DU-145, less than 4.00; in the assay with Vero, less than 4.00. In addition, the IC50 result (in assay [6]; on Histone deacetylase 1) was “Not Active” each time.
